Experiment [1] has as its system immunologically stimulated human basophils. Put plainly: Inhibition of histamine release from immunologically stimulated human basophils. It counts as cell-based. Particulars: 1 h; human basophils challenged with anti-IgE or antigen; 60 minutes at 37° C.; active if ED50 ≤48 μM; read-out: ED50 (concentration which causes a 50% inhibition of histamine release). Here is the method: The novel compounds of this invention have been tested by the procedure of Lichtenstein, L. M. and Osler, A. G., J. Exp. Med., 120, 507-530 (1964), which evaluated the ability of compounds to inhibit mediator (histamine) release from immunologically stimulated human basophils.
Dissolve 140.3 g of sodium chloride, 7.45 g of potassium chloride and 74.5 g of Trizma-Tris Pre-Set, Reagent Grade, pH 7.6, at 25° C. (Sigma Chemical Co.) in sufficient water to give a final volume of 2 liters.
(Sigma Chemical Co.) (30 mg/ml)
Made to 0.75M and 0.5M respectively, with calcium chloride dihydrate and magnesium chloride hexahydrate.
A 10 ml portion of 10× Tris Buffer and 1.0 ml of human albumin are diluted to 100 ml with water.
A 10 ml portion of 10× Tris Buffer, 1.0 ml of human albumin, 0.8 ml of calcium stock and 0.2 ml of magnesium stock are diluted to 100 ml with water.
Behring Diagnostics (Generally used at […] final concentration).
Strength 1:100 (w:v) allergenic extract, Hollister-Stier Labs. Generally this is diluted 1:1000 to 1:10,000 (considering the vial as stock).
Intradermal solutions of intramuscular preparations for hyposensitization, Hollister-Stier Labs. The final concentration used is on the order of 1 PNU/ml.
Eighty milliliters of blood is withdrawn from subjects with known histamine release to anti-IgE, ragweed antigen or other specific allergen, using four 20 ml heparinized tubes. This 80 ml of blood is mixed with 20 ml of saline containing 0.6 g of dextrose and 1.2 g of dextran. The blood is allowed to sediment at room temperature in two 50 ml polycarbonate centrifuge tubes until a sharp interface develops between the red cells and plasma (60-90 minutes). The plasma (top) layer from each tube is withdrawn by pipet and transferred to respective 50 ml polycarbonate tubes. The plasma is centrifuged for 8 minutes at 110×G at 4° C. The supernatant is carefully poured off as completely as possible and the cell button is resuspended in 2-3 ml of Tris-A buffer using a silconized Pasteur pipet. The resuspension is accomplished by drawing the liquid gently in an out of the pipet, with the tip below the liquid, until and even suspension of cells is obtained. Sufficient Tris-A buffer is then added to bring the volume in the tube to about 45 ml and the tube is centrifuged at 110×G for 8 minutes at 4° C. The supernatant is poured off and the cell button is resuspended and centrifuged as described above. The supernatant is poured off and the cell button suspended in 2-3 ml of Tris-ACM buffer to make the final volume sufficient to allow addition to the reaction tubes.
Reaction tubes containing anti-IgE or antigens, either alone or with test compound in a total volume of 0.2 ml are prepared and placed in a 37° C. bath. The cells are warmed to 37° C. and frequently swirled to ensure and even suspension, while 1.0 ml aliquots are added to each reaction tube. The tubes are then incubated for 60 minutes at 37° C., vortexing the tubes gently every 15 minutes to keep the cells evenly suspended. When the reaction is complete, the tubes are centrifuged at 4° C. for 10 minutes at 1500 rpm to sediment the cells. One ml aliquots of supernatant are transferred to 12 mm by 75 mm polyethylene tubes and 0.2 ml of 8% perchloric acid is added to each tube. Blanks and totals are included in each test. The blanks have cells and all reagents except antigent or anti-IgE. The totals contain 0.24 ml of 8% perchloric acid, one ml of cells and 0.2 ml of buffer. […]

The target in another experiment is T1, Neutrophil Lipoxygenase (Cavia porcellus, UniProt A0A286X958).
T1 construct: peritoneal neutrophils derived from guinea pigs; endogenous in cells; host or cells: guinea pig peritoneal neutrophils
T1 sequence (A0A286X958 1-674): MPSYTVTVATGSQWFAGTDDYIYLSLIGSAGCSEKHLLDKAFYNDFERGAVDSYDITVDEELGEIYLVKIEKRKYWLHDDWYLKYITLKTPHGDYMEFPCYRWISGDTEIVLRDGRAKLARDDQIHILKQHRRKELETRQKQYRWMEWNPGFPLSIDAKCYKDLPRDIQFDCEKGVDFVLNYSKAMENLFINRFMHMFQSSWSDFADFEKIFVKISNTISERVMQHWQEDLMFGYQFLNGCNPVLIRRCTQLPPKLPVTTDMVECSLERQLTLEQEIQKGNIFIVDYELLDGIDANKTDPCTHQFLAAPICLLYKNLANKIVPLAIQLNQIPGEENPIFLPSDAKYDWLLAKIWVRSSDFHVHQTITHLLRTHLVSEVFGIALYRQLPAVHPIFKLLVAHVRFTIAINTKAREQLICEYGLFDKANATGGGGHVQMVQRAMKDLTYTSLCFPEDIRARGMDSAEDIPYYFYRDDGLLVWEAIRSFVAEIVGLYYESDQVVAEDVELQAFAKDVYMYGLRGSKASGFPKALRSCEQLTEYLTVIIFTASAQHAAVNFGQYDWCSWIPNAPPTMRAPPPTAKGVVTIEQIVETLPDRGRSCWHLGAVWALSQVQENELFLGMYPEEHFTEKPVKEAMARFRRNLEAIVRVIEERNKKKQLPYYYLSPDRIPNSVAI
Nature of the experiment: Inhibition of neutrophil lipoxygenase (release and biosynthesis of LTB4 and 5-HETE) in guinea pig neutrophils. Particulars: 10 μg/ml compound, 100 μM arachidonic acid and 20 μM calcium ionophore (A23187), the lower the percentage, the more active. It is filed as cell-based. Here is the method: The ability of these compounds to inhibit lipoxygenase activity in terms of the suppression of the release and biosynthesis of leukotriene B4 (LTB4) and 5-hydroxyeicosatetraenoic acid (5-HETE) was measured as follows.
In this assay 3×10^7 peritoneal neutrophils derived from guinea pigs were incubated at 37° C. in Dulbeccos buffer containing 50 mM tris buffer (pH 7.4). Five minutes before the addition of 100 μM arachidonic acid and 20 μM calcium ionophore (A23187), control vehicle or the test compounds were added to the neutrophils at a concentration of 10 μg/ml.
Three minutes after the addition of arachidonic acid and calcium ionophore the total lipid was partitioned into chloroform after adjusting the pH to 3 with citric acid and the addition of equal parts of methanol and chloroform.
The 5-HETE and LTB4 were resolved by HPLC using a 5M, 4×25 cm octadecyl silica column (IBM Instruments) with 70-80% methanol in water adjusted to pH 3.0 with acetic acid. As the mobile phase was pumped at 1.0 ml/minute, LTB4 and 5-HETE were detected by absorbance at 270 and 236 nm, respectively.
LTB4 and 5-HETE were quantitated by comparison with the control and the results were expressed as a percent of control.

Setting [2] is: 5-HETE, read-out: 5-HETE, % of Control.
The mark [3] stands for this setting: LTB4, read-out: LTB4, % of Control.

Read-outs that look alike come from different tables or passages of the source.

Regarding `CCOC(=O)N1CCN(C2=CC(=O)c3ncccc3C2=O)CC1` [4-(5,8-Dihydro-5,8-dioxo-6-quinolyl)-1-piperazinecarboxylic acid ethyl ester], the IC50 in experiment [1] was found to be 17.4 µM. The same measure, in the same setting: to `CCOC(=O)N1CCN(C2=CC(=O)c3nccnc3C2=O)CC1` [4-(5,8-dihydro-5,8-dioxo-6-quinoxalinyl)-1-piperazine carboxylic acid ethyl ester] belongs 3.7 µM. For the compound `O=C1C=C(N2CCN(c3nc4ccccc4s3)CC2)C(=O)c2nccnc21` [6-[4-(2-Benzothiazoyl)-1-piperazinyl]-5,8-quinoxalinedione], the IC50 in experiment [1] came to 1.2 µM. Moreover, the remaining activity at 10 µg/mL on Neutrophil Lipoxygenase (setting [2]) was 67.2%; at Neutrophil Lipoxygenase (setting [3]), 8%. In the case of `O=C1C(N2CCN(c3nc4ccccc4o3)CC2)=CC(=O)c2ncccc21` [6-[4-(2-Benzoxazolyl)-1-piperazinyl]-5,8-quinolinedione], the remaining activity at 10 µg/mL at Neutrophil Lipoxygenase (setting [2]) worked out at 36.9%; at Neutrophil Lipoxygenase (setting [3]), 8%.

As to `O=C1C(N2CCN(Cc3ccccc3)CC2)=CC(=O)c2ncccc21` [6-[4-(Phenylmethyl)-1-piperazinyl]-5,8-quinolinedione], in experiment [1], the IC50 turned out to be 12.1 µM.

`O=C1C=C(N2CCN(c3cccc(C(F)(F)F)c3)CC2)C(=O)c2nccnc21` [6-[4-[3-(Trifluoromethyl)phenyl]-1-piperazinyl]-5,8-quinoxalinedione]: the IC50 in experiment [1] is 6.6 µM. For the same compound, the remaining activity at 10 µg/mL at Neutrophil Lipoxygenase (setting [2]) is 1.6%; at Neutrophil Lipoxygenase (setting [3]), 0%. As to `O=C1C(N2CCN(c3cccc(C(F)(F)F)c3)CC2)=CC(=O)c2ncccc21` [6-[4-[3-(Trifluromethyl)phenyl]-1-piperazinyl]-5,8-quinolinediones], the remaining activity at 10 µg/mL was 11.9% at Neutrophil Lipoxygenase (setting [2]) and 5.7% at Neutrophil Lipoxygenase (setting [3]). The like results for `O=C1C=C(N2CCN(Cc3ccccc3)CC2)C(=O)c2nccnc21` [6[4-(Phenylmethyl)-1-piperazinyl]-5,8-quinoxalinedione] were, in that order, 53.9% and 8%.

With `O=C1C=C(N2CCN(c3nc4ccccc4o3)CC2)C(=O)c2ncccc21` [7-[4-(2-Benzoxazolyl)-1-piperazinyl]-5,8-quinolinedione], the remaining activity at 10 µg/mL on Neutrophil Lipoxygenase (setting [2]) is 22.7%; on Neutrophil Lipoxygenase (setting [3]), 35.8%.

The values are drawn from US4742059A, “Substituted quinoxalinediones and their methods of use” (American Cyanamide Company, priority 1987, dated 1988).
